In patent US10501479B2, “Benzenesulfonyl-asymmetric ureas and medical uses thereof” (HELSINN HEALTHCARE SA, priority 2016, dated 2019):

Target: T1, recombinant human ghrelin receptor (HEK293/GRLN) (Homo sapiens, UniProt Q92847)
T1 construct: expressed in transfected cells
Experiment: Ghrelin inverse agonist potency (EC50) with IP-1 (IP-One HTRF) assay
Assay type: cell-based
Details: inverse agonist potency, IP-1 assay; read-out: EC50 (Activity)
Protocol: Evaluation of Ghrelin Inverse Agonist Potency (EC50) with IP-1 Assay:
HEK293 cells stably expressing recombinant human ghrelin receptor (HEK293/GRLN) were used in the IP-One HTRF assay. One day before the test, cells were seeded at a density of 1.5×10^4/well in a Matrigel® coated 384-well plate with 30 μL of complete Dulbecco's Modified Eagle's Medium and incubated at 37° C. in 5% CO2 for 18-22 hours. On the test day, the medium was removed by centrifugation at 600 rpm for 30 seconds, and 20 μL of stimulation buffer containing 1x tested compound was added with Bravo (Agilent technologies). The plate was then incubated at 37° C. 5% CO2 for 1 hour. After the incubation, 5 μL of IP1-d2 and 5 μL of Tb-Cryp were added to all wells using multidrop Combi(Thermo). After additional incubation at room temperature for 1 hour, the plates were read on Envision with 620 and 665 (Perkin Elmer).

T1 sequence (Q92847 whole entry): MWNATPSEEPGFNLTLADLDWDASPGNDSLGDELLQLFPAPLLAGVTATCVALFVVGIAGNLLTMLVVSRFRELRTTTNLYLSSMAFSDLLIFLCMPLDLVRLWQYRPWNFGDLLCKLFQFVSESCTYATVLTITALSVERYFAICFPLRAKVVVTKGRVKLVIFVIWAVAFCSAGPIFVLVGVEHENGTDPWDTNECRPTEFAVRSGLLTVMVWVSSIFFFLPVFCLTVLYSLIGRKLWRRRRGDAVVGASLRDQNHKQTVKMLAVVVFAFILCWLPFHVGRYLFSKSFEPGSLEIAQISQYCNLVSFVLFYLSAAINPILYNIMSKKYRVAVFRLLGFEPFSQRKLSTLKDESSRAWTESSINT

`C[C@H](NC(=O)Nc1ccc(S(=O)(=O)Nc2ccc(CN)cc2)cc1)c1cccc(Cl)c1Cl` [H1050, (S)-N-(4-(aminomethyl)phenyl)-4-(3-(1-(2,3-dichlorophenyl)ethyl)ureido) benzenesulfonamide] and `C[C@H](NC(=O)Nc1ccc(S(=O)(=O)Nc2ccc(-c3cnc[nH]3)cc2)cc1)c1cccc(Cl)c1Cl` [H1109, (S)-N-(4-(1H-imidazol-5-yl)phenyl)-4-(3-(1-(2,3-dichlorophenyl)ethyl)ureido) benzenesulfonamide] are within 1.5-fold of each other in EC50: 0.109 µM for the first, 0.136 µM for the second.

Compared with `CC(NC(=O)Nc1ccc(S(=O)(=O)Cc2ccc3c(c2)CCNC3)cc1)c1ccccc1Cl` (stereo not shown) [H1041, 1-(1-(2-chlorophenyl)ethyl)-3-(4-(((1,2,3,4-tetrahydroisoquinolin-6-yl)methyl)sulfonyl)phenyl)urea], `C[C@H](NC(=O)Nc1ccc(S(=O)(=O)Cc2ccc3c(c2)CCOC3)cc1)c1cccc(Cl)c1Cl` [H1092, (S)-1-(1-(2,3-dichlorophenyl)ethyl)-3-(4-((isochroman-6-ylmethyl)sulfonyl)phenyl)urea] is 10-fold higher in EC50: 0.0555 µM for the first, 0.578 µM for the second.

First: C[C@H](NC(=O)Nc1ccc(S(=O)(=O)Cc2ccc3c(c2)CCN(Cc2ccccc2)C3)cc1)c1cccc(Cl)c1Cl [H1072, (S)-1-(4-(((2-benzyl-1,2,3,4-tetrahydroisoquinolin-6-yl)methyl)sulfonyl)phenyl)-3-(1-(2,3-dichlorophenyl)ethyl)urea]
Second: COc1ccc(CS(=O)(=O)c2ccc(NC(=O)N[C@@H](C)c3cccc(Cl)c3Cl)cc2)cc1 [H1083, (S)-1-(1-(2,3-dichlorophenyl)ethyl)-3-(4-((4-methoxybenzyl)sulfonyl)phenyl)urea]
The EC50 of the first is 54-fold lower: 0.0219 µM for the first, 1.18 µM for the second.

Compared with `CC(NC(=O)Nc1ccc(S(=O)(=O)Cc2ccc3c(c2)CN(C)C3)cc1)C1CC1` (stereo not shown) [H1244, 1-(1-cyclopropylethyl)-3-(4-(((2-methylisoindolin-5-yl)methyl)sulfonyl)phenyl)urea], `CCNC(=O)Nc1ccc(S(=O)(=O)Nc2ccc(CC(C)(C)N)cc2)cc1` [H0994, N-(4-(2-amino-2-methylpropyl)phenyl)-4-(3-ethylureido)benzenesulfonamide] is 4-fold higher in EC50: 0.356 µM for the first, 1.43 µM for the second.

Target: T2, GHSR-1a (HEK293/GHSR1a cell line) (Homo sapiens, UniProt Q92847)
T2 construct: expressed in transfected cells; host or cells: HEK293/GHSR1a cell line
T2 sequence (Q92847 whole entry): as above
Experiment: Ghrelin antagonist potency (IC50) with calcium FLIPR assay, ghrelin 10 nM
Assay type: cell-based
Details: HEK293/GHSR1a, ghrelin 10 nM, read-out: Activity IC50 (ghrelin antagonist potency)
Protocol: Evaluation of Ghrelin Agonist (EC50) and Antagonist Potency (IC50) with Calcium FLIPR Assay:
The intracellular calcium assay was carried out in a 384-well format FLIPR™ (Molecular Device) HEK293/GHSR1a cell line. Cells were seeded 24 hr prior to the experiments at an optimal density per well. Preincubation with selected calcium dye lasted for 30-60 min at room temperature or 37° C. Test compounds, dissolved in DMSO, were added at the appropriate time and incubated for 15 min followed by the addition of ghrelin with FlexStation or FLIPR. Relative fluorescence was monitored by the FLIPR™ Molecular Device. EC50 and IC50 values were estimated from dose-response data using GraphPad Prism software. To check for GHSR-1a agonism, the compound was added at t=20 sec. and the calcium response was followed for 2 minutes. To check for GHSR-1a antagonism, the compound and Ghrelin (10 nM) were added to the cells at t=20 sec. and the calcium response was measured for 2 minutes. The potency of the antagonist was calculated by its ability to reduce the ghrelin response. Dose-response curves were made for relevant antagonists.

Going from `CC(c1ccccc1)N1Cc2cc(S(=O)(=O)Cc3ccc4c(c3)CNC4)ccc2NC1=O` (stereo not shown) [H1395, 6-((isoindolin-5-ylmethyl)sulfonyl)-3-(1-phenylethyl)-3,4-dihydroquinazolin-2(1H)-one] to `C[C@H](NC(=O)Nc1ccc2c(c1)C=C(c1ccc3c(c1)CNC3)S2(=O)=O)c1ccccc1` [H1270, (S)-1-(2-(isoindolin-5-yl)-1,1-dioxidobenzo[b]thiophen-5-yl)-3-(1-phenylethyl)urea], the IC50 falls from 0.0689 µM to 0.0251 µM (2.7-fold). The second is the more potent here.

First: CCc1ccc(Cl)c(C(=O)NC(=O)Nc2ccc(S(=O)(=O)Nc3ccc4c(c3)CNCC4)cc2)c1 [H1263, 2-chloro-5-ethyl-N-((4-(N-(1,2,3,4-tetrahydroisoquinolin-7-yl)sulfamoyl)phenyl)carbamoyl) benzamide]
Second: CCc1ccc(Cl)c(C(=O)NC(=O)Nc2ccc(S(=O)(=O)Nc3ccc(CC(C)(C)N)cc3)cc2)c1 [H1254, N-((4-(N-(4-(2-amino-2-methylpropyl)phenyl)sulfamoyl)phenyl)carbamoyl)-2-chloro-5-ethylbenzamide]
The IC50 of the first is 14-fold higher: 0.246 µM for the first, 0.0172 µM for the second.

Same assay, conditions: ghrelin antagonist potency, read-out: IC50 (Activity)

First: C[C@H](NC(=O)Nc1ccc(S(=O)(=O)Nc2ccc(CN)cc2)cc1)c1cccc(Cl)c1Cl [H1050, (S)-N-(4-(aminomethyl)phenyl)-4-(3-(1-(2,3-dichlorophenyl)ethyl)ureido) benzenesulfonamide]
Second: Cc1ccc(NS(=O)(=O)c2ccc(NC(=O)N[C@@H](C)c3cccc(Cl)c3Cl)cc2)cc1 [H0966, (S)-4-(3-(1-(2,3-dichlorophenyl)ethyl)ureido)-N-(p-tolyl)benzenesulfonamide]
The IC50 of the first is 110-fold lower: 0.0574 µM for the first, 6.58 µM for the second. The first is the more potent here.

Compared with `CC(NC(=O)Nc1ccc(S(=O)(=O)Cc2ccc3c(c2)CCNC3)cc1)c1ccccc1Cl` (stereo not shown) [H1041, 1-(1-(2-chlorophenyl)ethyl)-3-(4-(((1,2,3,4-tetrahydroisoquinolin-6-yl)methyl)sulfonyl)phenyl)urea], `C[C@H](NC(=O)Nc1ccc(S(=O)(=O)Cc2ccc3c(c2)NCC3)cc1)c1cccc(Cl)c1Cl` [H1045, (S)-1-(1-(2,3-dichlorophenyl)ethyl)-3-(4-((indolin-6-ylmethyl)sulfonyl)phenyl)urea] is 160-fold higher in IC50: 0.0174 µM for the first, 2.74 µM for the second.

Compared with `C[C@H](NC(=O)Nc1ccc(S(=O)(=O)Cc2ccc3c(c2)CCN(Cc2ccccc2)C3)cc1)c1cccc(Cl)c1Cl` [H1072, (S)-1-(4-(((2-benzyl-1,2,3,4-tetrahydroisoquinolin-6-yl)methyl)sulfonyl)phenyl)-3-(1-(2,3-dichlorophenyl)ethyl)urea], `C[C@H](NC(=O)Nc1ccc(S(=O)(=O)Cc2ccc(-c3cccnc3)cc2)cc1)c1cccc(Cl)c1Cl` [H1070, (S)-1-(1-(2,3-dichlorophenyl)ethyl)-3-(4-((4-(pyridin-3-yl)benzyl)sulfonyl)phenyl)urea] is 43-fold higher in IC50: 0.123 µM for the first, 5.29 µM for the second. The first is the more potent here.

Compared with `CC(NC(=O)Nc1ccc(S(=O)(=O)Cc2ccc3c(c2)CN(C)C3)cc1)C1CC1` (stereo not shown) [H1244, 1-(1-cyclopropylethyl)-3-(4-(((2-methylisoindolin-5-yl)methyl)sulfonyl)phenyl)urea], `COc1ccc([C@H](C)NC(=O)Nc2ccc(S(=O)(=O)Cc3ccc4c(c3)CCN(S(C)(=O)=O)C4)cc2)c(Cl)c1Cl` [H1026, (S)-1-(1-(2,3-dichloro-4-methoxyphenyl)ethyl)-3-(4-(((2-(methylsulfonyl)-1,2,3,4-tetrahydroisoquinolin-6-yl)methyl)sulfonyl)phenyl)urea] is 12-fold higher in IC50: 1.28 µM for the first, 14.9 µM for the second. The first is the more potent here.

Compared with `C[C@H](NC(=O)Nc1ccc(S(=O)(=O)Nc2ccc(-c3cnc[nH]3)cc2)cc1)c1cccc(Cl)c1Cl` [H1109, (S)-N-(4-(1H-imidazol-5-yl)phenyl)-4-(3-(1-(2,3-dichlorophenyl)ethyl)ureido) benzenesulfonamide], `C[C@H](NC(=O)Nc1ccc(S(=O)(=O)Nc2ccc(N)nc2)cc1)c1cccc(Cl)c1Cl` [H1126, (S)-N-(6-aminopyridin-3-yl)-4-(3-(1-(2,3-dichlorophenyl)ethyl)ureido) benzenesulfonamide] is 2.3-fold lower in IC50: 0.427 µM for the first, 0.183 µM for the second.

Going from `COc1ccc(C(C)(C)NC(=O)Nc2ccc(S(=O)(=O)Nc3ccc(CC(C)(C)N)cc3)cc2)c(Cl)c1Cl` [H0975, N-(4-(2-amino-2-methylpropyl)phenyl)-4-(3-(2-(2,3-dichloro-4-methoxyphenyl)propan-2-yl)ureido)benzenesulfonamide] to `C[C@H](NC(=O)N(C)c1ccc(S(=O)(=O)Nc2ccc(CC(C)(C)N)cc2)cc1)c1ccc(-c2cnccn2)c(Cl)c1Cl` [H0942, (S)-N-(4-(2-amino-2-methylpropyl)phenyl)-4-(3-(1-(2,3-dichloro-4-(pyrazin-2-yl)phenyl)ethyl)-1-methylureido) benzenesulfonamide], the IC50 rises from 0.0095 µM to 2.04 µM (210-fold).

Going from `O=C(NCc1ccccc1)Nc1ccc(S(=O)(=O)Cc2ccc(CO)cc2)cc1` [H1131, 1-benzyl-3-(4-((4-(hydroxymethyl)benzyl)sulfonyl)phenyl)urea] to `CN(C)C(C)(C)Cc1ccc(CS(=O)(=O)c2ccc(NC(=O)NCc3cccc(Cl)c3Cl)cc2)cc1` [H0981, 1-(2,3-dichlorobenzyl)-3-(4-((4-(2-(dimethylamino)-2-methylpropyl)benzyl)sulfonyl)phenyl)urea], the IC50 falls from ≥ 30 µM to 0.0095 µM.

`C[C@H](NC(=O)Nc1ccc(S(=O)(=O)Cc2ccc(C(N)=O)cc2)cc1)c1cccc(Cl)c1Cl` [H1073, (S)-4-(((4-(3-(1-(2,3-dichlorophenyl)ethyl)ureido)phenyl)sulfonyl)methyl)benzamide] and `C[C@H](NC(=O)Nc1ccc(S(=O)(=O)Nc2ccccc2)cc1)c1cccc(Cl)c1Cl` [H0965, (S)-4-(3-(1-(2,3-dichlorophenyl)ethyl)ureido)-N-phenylbenzenesulfonamide] cannot be ordered by IC50: > 30 µM for the first, > 30 µM for the second.

Going from `O=C(NCc1cscn1)Nc1ccc(S(=O)(=O)Cc2ccc3c(c2)CNC3)cc1` [H1216, 1-(4-((isoindolin-5-ylmethyl)sulfonyl)phenyl)-3-(thiazol-4-ylmethyl)urea] to `CCc1ccc(Cl)c(C(=O)NC(=O)Nc2ccc(S(=O)(=O)Cc3ccc4c(c3)CNC4)cc2)c1` [H1248, 2-chloro-5-ethyl-N-((4-((isoindolin-5-ylmethyl)sulfonyl)phenyl)carbamoyl)benzamide], the IC50 falls from 8.45 µM to 0.283 µM (30-fold). The second is the more potent here.

First: C[C@H](NC(=O)Nc1ccc(S(=O)(=O)Nc2ccc3c(c2)CCCN3)cc1)c1cccc(Cl)c1Cl [H1003, (S)-4-(3-(1-(2,3-dichlorophenyl)ethyl)ureido)-N-(1,2,3,4-tetrahydroquinolin-6-yl)benzenesulfonamide]
Second: O=C(NCc1cccc(Cl)c1Cl)Nc1ccc(S(=O)(=O)Cc2ccc3c(c2)CCN3)cc1 [H1048, 1-(2,3-dichlorobenzyl)-3-(4-((indolin-5-ylmethyl)sulfonyl)phenyl)urea]
The IC50 of the first is 8.3-fold lower: 2.02 µM for the first, 16.8 µM for the second. The first is the more potent here.

Compared with `CC(NC(=O)N(O)c1ccc(S(=O)(=O)Nc2ccc3c(c2)CNC3)cc1)c1ccccc1` (stereo not shown) [H1199, 4-(1-hydroxy-3-(1-phenylethyl)ureido)-N-(isoindolin-5-yl)benzenesulfonamide], `O=C(NC(=O)c1cc(N2CCOCC2)ccc1Cl)Nc1ccc(S(=O)(=O)Nc2ccc3c(c2)CNC3)cc1` [H1250, 2-chloro-N-((4-((isoindolin-5-yl)sulfamoyl)phenyl)carbamoyl)-5-morpholinobenzamide] is 18-fold higher in IC50: 0.0757 µM for the first, 1.37 µM for the second.

First: O=C(NCc1cccc(Cl)c1Cl)Nc1ccc(S(=O)(=O)Cc2ccc3c(c2)NCC3)cc1 [H1046, 1-(2,3-dichlorobenzyl)-3-(4-((indolin-6-ylmethyl)sulfonyl)phenyl)urea]
Second: CCOc1ccc(Cl)c(C(=O)NC(=O)Nc2ccc(S(=O)(=O)Cc3ccc4c(c3)CNC4)cc2)c1 [H1251, 2-chloro-5-ethoxy-N-((4-((isoindolin-5-ylmethyl)sulfonyl)phenyl)carbamoyl)benzamide]
The IC50 of the first is 22-fold higher: 1.99 µM for the first, 0.0896 µM for the second.

For `C[C@H](NC(=O)Nc1ccc(S(=O)(=O)N2CCN(C)CC2)cc1)c1ccccc1` [H1225, (S)-1-(4-((4-methylpiperazin-1-yl)sulfonyl)phenyl)-3-(1-phenylethyl)urea], the IC50 was 5.9 µM.
